Measured values reported in ChEMBL document CHEMBL4000146, “Synthesis, antiplasmodial activity and mechanistic studies of pyrimidine-5-carbonitrile and quinoline hybrids” (Eur J Med Chem, 2015).
The source made the active and inactive calls. The calls are words filed in the database; no cut-off is given here.

How the values were obtained:
[1] = Cytotoxicity against MDCK cells assessed as inhibition of cell viability by colorimetric formazan-based MTS assay; parameters: species or system Canis lupus familiaris; settings: dog
Influenza A virus [2] = experiment: microbe, parasite or virus in culture; settings: H1N1, MDCK
Human alphaherpesvirus 1 [3] = format: functional, cell-based; settings: Human alphaherpesvirus 1, KOS, HEL
Human respirovirus 3 = format: functional; settings: Human respirovirus 3, Vero
Human alphaherpesvirus 2 = format: functional, cell-based; settings: Human alphaherpesvirus 2, G, HEL
[4] = system: Mammalian orthoreovirus 1; format: functional; settings: Mammalian orthoreovirus 1, Vero
Human alphaherpesvirus 3 [5] = format: functional, cell-based; settings: Human alphaherpesvirus 3, strain Oka vaccine, HEL
[6] = Selectivity index, ratio of IC50 for human HeLa cells to IC50 for chloroquine-resistant asexual intraerythrocytic stage of Plasmodium falciparum Dd2; format: toxicity, cell-based; settings: read-out: Ratio IC50
Plasmodium falciparum [7] = experiment: microbe, parasite or virus in culture; settings: NF54
Vaccinia virus = experiment: microbe, parasite or virus in culture; settings: Orthopoxvirus vaccinia, HEL
[8] = Selectivity index, ratio of IC50 for human HeLa cells to IC50 for chloroquine-sensitive asexual intraerythrocytic stage of Plasmodium falciparum NF54; format: toxicity, cell-based; settings: read-out: Ratio IC50
[9] = Cytotoxicity against human HEL cells assessed as inhibition of cell viability by colorimetric formazan-based MTS assay
Plasmodium falciparum [10] = experiment: microbe, parasite or virus in culture; settings: Dd2
unidentified adenovirus = format: functional, cell-based; settings: HEL
Influenza A virus [11] = experiment: microbe, parasite or virus in culture; settings: H3N2, MDCK
Heme [12] = experiment: Binding affinity to monomeric heme (unknown origin) assessed as 1:1 stoichiometry for monomeric heme-compound complex at pH 7.5 by Job's plot analysis
[13] = Cytotoxicity against MDCK cells assessed as alteration of normal cell morphology by microscopic analysis; format: cell-based, Canis lupus familiaris; settings: dog
Coxsackievirus [14] = format: functional; settings: B4, Vero
Plasmodium falciparum [15] = experiment: Potency index, ratio of chloroquine IC50 to test compound IC50 for chloroquine-resistant asexual intraerythrocytic stage of Plasmodium falciparum Dd2; format: functional
CCRF-CEM = experiment: Cytotoxicity against human CEM cells assessed as inhibition of cell proliferation by Coulter counter analysis; format: cell-based
Influenza B virus = experiment: microbe, parasite or virus in culture; settings: MDCK
HeLa = experiment: Cytotoxicity against human HeLa cells assessed as inhibition of cell proliferation by Coulter counter analysis; format: cell-based
[16] = system: Vesicular stomatitis virus; experiment: microbe, parasite or virus in culture; settings: HEL
mu-oxodimeric heme = experiment: Binding affinity to mu-oxo-heme (unknown origin) assessed as 1:1 stoichiometry for mu-oxo-heme-compound complex at pH 5.8 by Job's plot analysis
[17] = Cytotoxicity against african green monkey Vero cells assessed as alteration of normal cell morphology by microscopic analysis; format: cell-based; settings: chlorocebus sabaeus
Heme [18] = experiment: Binding affinity to monomeric heme (unknown origin) assessed as 1:1 ratio of monomeric heme-compound complex at 0.24 mM by mass spectra analysis
Human alphaherpesvirus 3 [19] = format: functional, cell-based; settings: Human alphaherpesvirus 3, 07-1, HEL
Sindbis virus = format: functional; settings: Vero
[20] = system: Vesicular stomatitis virus; experiment: microbe, parasite or virus in culture; settings: HeLa
[21] = Cytotoxicity against human HeLa cells assessed as alteration of normal cell morphology by microscopic analysis; format: cell-based
Coxsackievirus [22] = format: functional, cell-based; settings: B4, HeLa
Punta Toro virus = format: functional; settings: Vero
Human alphaherpesvirus 1 [23] = format: functional, cell-based; settings: Human alphaherpesvirus 1, KOS, HEL; remark: listed apart in the source
[24] = Cytotoxicity against human HEL cells assessed as alteration of normal cell morphology by microscopic analysis; format: cell-based
Plasmodium falciparum [25] = experiment: Resistance index, ratio of IC50 for chloroquine-resistant asexual intraerythrocytic stage of Plasmodium falciparum Dd2 to IC50 for chloroquine-sensitive asexual intraerythrocytic stage of Plasmodium falciparum NF54; format: functional
L1210 = experiment: Cytotoxicity against mouse L1210 cells assessed as inhibition of cell proliferation by Coulter counter analysis; format: cell-based
Human betaherpesvirus 5 [26] = format: functional, cell-based; settings: Human betaherpesvirus 5, AD169, HEL
Human orthopneumovirus = format: functional, cell-based; settings: human respiratory syncytial virus, HeLa
Human betaherpesvirus 5 [27] = format: functional, cell-based; settings: Human betaherpesvirus 5, Davis, HEL
Heme [28] = experiment: Binding affinity to monomeric heme (unknown origin) assessed as 1:1 stoichiometry for monomeric heme-compound complex at pH 5.6 by Job's plot analysis
Heme [29] = experiment: Binding affinity to monomeric heme (unknown origin) assessed as monomeric heme-compound complex formation up to 37.3 uM by UV-visible absorption spectrophotometry

| Compound | CC50 [1] [µM] | EC50 (Influenza A virus [2]) [µM] | EC50 (Human alphaherpesvirus 1 [3]) [µM] | EC50 (Human respirovirus 3) [µM] | EC50 (Human alphaherpesvirus 2) [µM] | EC50 [4] [µM] | EC50 (Human alphaherpesvirus 3 [5]) [µM] | selectivity ratio [6] | IC50 (Plasmodium falciparum [7]) [µM] | EC50 (Vaccinia virus) [µM] | selectivity ratio [8] | CC50 [9] [µM] | IC50 (Plasmodium falciparum [10]) [µM] | EC50 (unidentified adenovirus) [µM] | EC50 (Influenza A virus [11]) [µM] | MCC [13] [µM] | EC50 (Coxsackievirus [14]) [µM] | IC50 (CCRF-CEM) [µM] | EC50 (Influenza B virus) [µM] | IC50 (HeLa) [µM] | also measured |
| --- | --- | --- | --- | --- | --- | --- | --- | --- | --- | --- | --- | --- | --- | --- | --- | --- | --- | --- | --- | --- | --- |
| CSc1nc(NCCCCNc2ccnc3cc(Cl)ccc23)c(C#N)c(-c2cccc([N+](=O)[O-])c2)n1 | 9.6 | > 4 | > 4 | > 4 | > 4 | > 4 | > 0.8 | 19.7 | 0.0685 | > 4 | 16 | 4.2 | 0.0558 | > 4 | > 4 | 20 | > 4 | 2.1 | > 4 | 1.1 | Activity (Heme [12]): Active; Ratio IC50 (Plasmodium falciparum [15]): 4; EC50 [16]: > 4 µM; Activity (mu-oxodimeric heme): Active; MCC [17]: 20 µM; Activity (Heme [18]): Active; EC50 (Human alphaherpesvirus 3 [19]): > 0.8 µM; EC50 (Sindbis virus): > 4 µM; EC50 [20]: > 20 µM; MCC [21]: 100 µM; EC50 (Coxsackievirus [22]): > 20 µM; EC50 (Punta Toro virus): > 4 µM; EC50 (Human alphaherpesvirus 1 [23]): > 4 µM; MCC [24]: ≥ 4 µM; Ratio IC50 (Plasmodium falciparum [25]): 0.81; IC50 (L1210): 2.1 µM; EC50 (Human betaherpesvirus 5 [26]): > 0.8 µM; EC50 (Human orthopneumovirus): > 20 µM; EC50 (Human betaherpesvirus 5 [27]): > 0.8 µM; Activity (Heme [28]): Active |
| CSc1nc(-c2ccccc2)c(C#N)c(N2CCN(c3ccnc4cc(Cl)ccc34)CC2)n1 | > 100 | > 100 | > 100 | > 100 | > 100 | > 100 | > 100 | > 1.1 | 132 | > 100 | > 1.9 | > 100 | 212 | > 100 | > 100 | > 100 | > 100 | > 250 | > 100 | > 250 | EC50 [16]: > 100 µM; MCC [17]: > 100 µM; EC50 (Human alphaherpesvirus 3 [19]): > 100 µM; EC50 (Sindbis virus): > 100 µM; EC50 [20]: > 100 µM; MCC [21]: > 100 µM; EC50 (Coxsackievirus [22]): > 100 µM; EC50 (Punta Toro virus): > 100 µM; EC50 (Human alphaherpesvirus 1 [23]): > 100 µM; MCC [24]: ≥ 100 µM; Ratio IC50 (Plasmodium falciparum [25]): 1.6; IC50 (L1210): > 250 µM; EC50 (Human betaherpesvirus 5 [26]): > 20 µM; Activity (Heme [29]): inactive; EC50 (Human orthopneumovirus): > 100 µM; EC50 (Human betaherpesvirus 5 [27]): > 100 µM |
